According to patent US9273043B2, “TRPV1 antagonists including dihydroxy substituent and uses thereof” (Purdue Pharma L.P., priority 2011, dated 2016):
In brackets after ≈: the same amount, converted by molar mass. Read-outs that look alike come from different tables or passages of the source. Marks after values point to notes of the source that are not given here.

How the values were obtained:
[1] = In vivo assay of body temperature increase (rectal body temperature); design: species or system rat; conditions: rats, oral, 10 mL/kg of 1 mg/mL in 0.5% methylcellulose; greatest ΔTb versus vehicle control at 0.5, 1 or 2 hrs
Excerpt: Hyperthermia or undesirable elevation in animal body temperature is known to be an undesirable side-effect accompanying the administration of certain TRPV1 antagonists (Gavva, “Body-temperature maintenance as the predominant function of the vanilloid receptor TRPV1,” Trends Pharmacol. Sci. 29(11):550-557 (2008)).
Test Animals: Selection of rats (Crl/SD rats, 7 weeks, male) was based on rectal body temperature measured during the morning of the day of dosing as described below. In addition, to minimize spontaneous, stress-induced increases in body temperature, rats were acclimated in advance to both the rectal measurement procedure and to being handled and dosed. All lodging and testing took place in animal care laboratories with constant room temperature and humidity. The rats were free to move and ingest food and water throughout. Each rat was coded with a colored line on the tail, housed in a separate cage, and permitted the normal range of movement. Immediately before each body temperature measurement, a rat was transferred to a measurement cage. To reduce stress which could influence its body temperature, each rat was covered with towels during the measurement. A thermistor probe was then carefully inserted into the rectum of each rat and left in place until the temperature reading on the digital display had stabilized; this value was recorded.
Assay: On the day before dosing, rectal body temperature was measured at 9:00, 10:00, 11:00, 12:30, 13:30, 14:30, and 15:30 o'clock to familiarize the rats with the measurement procedure prior to administration of the test or control treatments. The rats were also dosed by oral gavage without vehicle at 12:30 o'clock to acclimate and familiarize them with the handling and dosing procedure.
On the day of dosing, only rats with rectal body temperatures within the range of from 37.0° C. to 37.7° C. were selected for study. Rectal body temperatures were measured at 9:00, 10:00, and 11:00 o'clock. Rats were excluded from the study if either their rectal body temperature was over 37.9° C. at 10:00 o'clock or was outside the range of from 37.0° C. to 37.7° C. at 11:00 o'clock. The selected rats were divided into several groups based on their rectal body temperatures at 11:00 o'clock. Rectal body temperatures of the selected rats were measured again at 12:30 o'clock and any rat with a rectal body temperature of 38.0° C. or greater was also excluded from the study.
Following assignment to either a test or control group, a test compound or a control was administered to the rats. Each test compound was dissolved in a vehicle of 0.5% aqueous methylcellulose solution and the final concentration of the test compound was adjusted to 1 mg/mL. Each test compound was orally administered once at a dose of 10 mL/kg. The same volume of the control (vehicle only) was administered once to the control group. Rectal body temperatures were measured at the following time points: 0.5, 1, and 2 hrs after administration.
The body temperature increase (ΔTb) for each test compound was calculated by subtracting, at each time point, the average temperature of the control group from the average temperature of the group administered that test compound. The greatest ΔTb obtained for each test compound at any of the time points is shown in Table 11 below, along with the ΔTb of the control.

[2] = Aqueous solubility at pH 1.2 and pH 6.8; assay type: physicochemical; conditions: aqueous solution
[3] = tested on: FCA-induced inflammation of the rat hind paw; test: Freund's complete adjuvant (FCA) model of inflammatory pain, paw withdrawal threshold; assay type: in vivo; conditions: rat FCA, 20 mg/kg
Method: Test Animals: Each experiment uses rats weighing between 200-260 g at the start of the experiment. The rats are group-housed and have free access to food and water at all times, except prior to oral administration of a Compound of Formula (I) when food is removed for 16 hours before dosing. A control group acts as a comparison to rats treated with a Compound of Formula (I). The control group is administered the vehicle for the Compound of Formula (I). The volume of vehicle administered to the control group is the same as the volume of carrier and Compound of Formula (I) administered to the test group.
Inflammatory Pain: To assess the actions of a Compound of Formula (I) for the treatment or prevention of inflammatory pain, the Freund's complete adjuvant (“FCA”) model of inflammatory pain was used. FCA-induced inflammation of the rat hind paw is associated with the development of persistent inflammatory mechanical hyperalgesia and provides reliable prediction of the anti-hyperalgesic action of clinically useful analgesic drugs (Bartho et al., “Involvement of capsaicin-sensitive neurons in hyperalgesia and enhanced opioid antinociception in inflammation,” Naunyn-Schmiedeberg's Archives of Pharmacol. 342:666-670 (1990)). The right hind paw of each male, 6-week old Jcl:SD rat was administered a 50 μL intraplantar injection of 50% FCA (Sigma-Aldrich). 24 hour post-injection, the animal was assessed for response to noxious mechanical stimuli by determining the PWT, as described below. Rats were then administered a single injection of 0.1, 0.3, 1, 3, or 10 mg/kg of either the product prepared with Compound A155(a) and fumaric acid as described in Example 10, 20 mg/kg of an ibuprofen control (EMD Millipore Chemicals, Inc.), or vehicle as a control (0.5% weight/volume methylcellulose (400cP, Wako Pure Chemical Industries, Ltd., Osaka, Japan)/aqueous solution). […] Responses to noxious mechanical stimuli were then determined 1, 3, 5, and 7 hours post-administration. Percentage reversal of hyperalgesia for each animal was defined as: […]
With the exception of the controls (i.e., ibuprofen, vehicle) where the student's t-test was used, Dunnett's test was conducted for the % reversal. In either instance, values with p<0.05 were considered to be statistically significant. The % reversal results for administration of the product prepared with Compound A155(a) and fumaric acid as described in Example 10 and the respective controls are presented in Table 7.
Response to Mechanical Stimuli as an Assessment of Mechanical Hyperalgesia: The paw pressure assay was used to assess mechanical hyperalgesia. For this assay, hind paw withdrawal thresholds (PWT) to a noxious mechanical stimulus were determined using an analgesymeter (Model 37215, commercially available from Ugo Basile of Italy) as described in Stein, “Unilateral Inflammation of the Hindpaw in Rats as a Model of Prolonged Noxious Stimulation: Alterations in Behavior and Nociceptive Thresholds,” Pharmacol. Biochem. and Behavior 31:451-455 (1988). The maximum weight that could be applied to the hind paw was set at 250 g and the end point was taken as complete withdrawal of the paw. PWT was determined once for each rat at each time point and either only the affected (ipsilateral) paw was tested, or both the ipsilateral and contralateral (non-injured) paw were tested.

[4] = pH 1.2, read-out: aqueous solubility at pH 1.2
[5] = pH 6.8, read-out: aqueous solubility at pH 6.8

## C[C@H]1CN(c2ncc([C@H](O)CO)cc2Cl)CCN1C(=O)Nc1nc2ccc(F)cc2s1 [AA]
[1]
  ΔTb, body temperature increase: 0.8 °C

## C[C@H]1CN(c2ncc([C@H](O)CO)cc2F)CCN1C(=O)Nc1nc2ccc(Cl)cc2s1 [AB]
[1]
  ΔTb, body temperature increase: 0.6 °C

## C[C@H]1CN(c2ncc([C@H](O)CO)cc2F)CCN1C(=O)Nc1nc2ccc(F)cc2s1 [AC]
[1]
  ΔTb, body temperature increase: 0.7 °C

## C[C@H]1CN(C(=O)Nc2nc3ccc(F)cc3s2)CCN1c1ncc([C@H](O)CO)cc1F [AD]
[1]
  ΔTb, body temperature increase: 0.6 °C

## C[C@H](O)[C@@H](O)c1cnc(N2CCN(C(=O)Nc3nc4ccc(F)cc4s3)[C@H](C)C2)c(Cl)c1 [BA]
[1]
  ΔTb, body temperature increase: 0.9 °C

## C[C@H](O)[C@@H](O)c1cnc(N2CCN(C(=O)Nc3nc4ccc(F)cc4s3)[C@H](C)C2)c(F)c1 [BC]
[1]
  ΔTb, body temperature increase: 0.7 °C

## O=C(Nc1ccc(C(F)(F)F)cc1)N1CC=C(c2ncccc2Cl)CC1 [Compound 200]
[2]; [4]
  solubility: < 0.1 µM

## O=C(Nc1ccc(C(F)(F)F)cc1)N1CCC(F)(c2ncccc2Cl)CC1 [Compound 203]
[2]; pH 6.8
  aqueous solubility at pH 6.8: insoluble

## O=C(Nc1ccc(C(F)(F)F)cc1)N1CCC(F)(c2ncccc2F)CC1 [Compound 207]
[2]; pH 6.8
  aqueous solubility at pH 6.8: insoluble

## O=C(Nc1ccc(C(F)(F)F)cc1)N1CC=C(c2ncccc2F)CC1 [Compound 208]
[2]; pH 6.8
  aqueous solubility at pH 6.8: insoluble

## O=C(Nc1ccc(C(F)(F)F)c(F)c1)N1CCC(F)(c2ncccc2Cl)CC1 [Compound 209]
[2]; [4]
  solubility: 9.3 µM (≈ 3.9 µg/mL)
[2]; [5]
  solubility: 1.0 µM (≈ 0.42 µg/mL)

## O=C(Nc1ccc(S(=O)(=O)C(F)(F)F)cc1)N1CCC(F)(c2ncccc2Cl)CC1 [Compound 210]
[2]; [4]
  solubility: 2.0 µM (≈ 0.932 µg/mL)
[2]; [5]
  solubility: 0.4 µM (≈ 0.186 µg/mL)

## O=C(Nc1ccc(OC(F)(F)F)cc1)N1CCC(F)(c2ncccc2Cl)CC1 [Compound 211]
[2]; [4]
  solubility: 1.3 µM (≈ 0.543 µg/mL)
[2]; [5]
  solubility: 0.4 µM (≈ 0.167 µg/mL)

## O=C(Nc1ccc(C(F)(F)F)c(F)c1)N1CCC(F)(c2ncccc2F)CC1 [Compound 212]
[2]; [4]
  solubility: 10.3 µM (≈ 4.15 µg/mL)
[2]; [5]
  solubility: 1.9 µM (≈ 0.766 µg/mL)

## O=C(Nc1ccc(C(F)(F)F)c(F)c1)N1CC=C(c2ncccc2Cl)CC1 [Compound 213]
[2]; [4]
  solubility: 39.6 µM (≈ 15.8 µg/mL)
[2]; [5]
  solubility: 0.8 µM (≈ 0.32 µg/mL)

## O=C(Nc1ccc(OC(F)(F)F)cc1)N1CC=C(c2ncccc2Cl)CC1 [Compound 214]
[2]; [4]
  solubility: > 50 µM
[2]; [5]
  solubility: 1.8 µM (≈ 0.716 µg/mL)

## C[C@@H]1CN(c2ncc([C@H](O)CO)cc2Cl)CCN1C(=O)Nc1nc2ccccc2s1 [DA]
[1]
  ΔTb, body temperature increase: 0.9 °C

## C[C@@H]1CN(c2ncc([C@H](O)CO)cc2F)CCN1C(=O)Nc1nc2ccccc2s1 [DB]
[1]
  ΔTb, body temperature increase: 1.1 °C

## C[C@@H]1CN(c2ncc([C@H](O)CO)cc2C(F)(F)F)CCN1C(=O)Nc1nc2ccccc2s1 [DC]
[1]
  ΔTb, body temperature increase: 1.0 °C

## O=C(Nc1nc2ccc(F)cc2s1)N1CCN(c2ncc([C@H](O)CO)cc2Cl)CC1 [DD]
[1]
  ΔTb, body temperature increase: 1.0 °C

## C[C@@H]1CN(c2ncc([C@H](O)CO)cc2Cl)CCN1C(=O)Nc1nc2ccc(F)cc2s1 [DE]
[1]
  ΔTb, body temperature increase: 1.3 °C

## O=C(Nc1nc2ccc(F)cc2s1)N1CCN(c2ncc([C@H](O)CO)cc2F)CC1 [DF]
[1]
  ΔTb, body temperature increase: 0.5 °C

## C[C@@H]1CN(c2ncc([C@H](O)CO)cc2F)CCN1C(=O)Nc1nc2ccc(F)cc2s1 [DG]
[1]
  ΔTb, body temperature increase: 1.0 °C

## O=C(Nc1nc2ccc(F)cc2s1)N1CCN(c2ncc([C@H](O)CO)cc2C(F)(F)F)CC1 [DH]
[1]
  ΔTb, body temperature increase: 0.9 °C

## C[C@@H]1CN(c2ncc([C@H](O)CO)cc2C(F)(F)F)CCN1C(=O)Nc1nc2ccc(F)cc2s1 [DI]
[1]
  ΔTb, body temperature increase: 0.8 °C

## Cc1ccc2nc(NC(=O)N3CCN(c4ncc([C@H](O)CO)cc4Cl)CC3)sc2c1 [DJ]
[1]
  ΔTb, body temperature increase: 0.9 °C

## C[C@@H]1CN(c2ncc([C@H](O)CO)cc2F)CCN1C(=O)Nc1nc2cc(F)ccc2s1 [DK]
[1]
  ΔTb, body temperature increase: 0.7 °C

## Cc1cc2nc(NC(=O)N3CCN(c4ncc([C@H](O)CO)cc4F)C[C@H]3C)sc2cc1C [DL]
[1]
  ΔTb, body temperature increase: 0.9 °C

## Cc1cc2nc(NC(=O)N3CCN(c4ncc([C@H](O)CO)cc4C)CC3)sc2cc1C [DM]
[1]
  ΔTb, body temperature increase: 0.9 °C

## Cc1cc([C@H](O)CO)cnc1N1CCN(C(=O)Nc2nc3ccc(Cl)cc3s2)CC1 [DN]
[1]
  ΔTb, body temperature increase: 0.8 °C

## COc1ccc2nc(NC(=O)N3CCN(c4ncc([C@H](O)CO)cc4F)C[C@H]3C)sc2c1 [DO]
[1]
  ΔTb, body temperature increase: 1.1 °C

## COc1ccc2nc(NC(=O)N3CCN(c4ncc([C@H](O)CO)cc4Cl)CC3)sc2c1 [DP]
[1]
  ΔTb, body temperature increase: 1.2 °C

## CC(C)Cc1ccc(C(C)C(=O)O)cc1 (stereo not shown) [Ibuprofen, ibuprofen, reference compound]
[3]; 1 h after administration
  % Reversal [mean]: 28.6^†† %
[3]; 1 h after administration, listed as ibuprofen
  % Reversal [mean]: 28.6%
[3]; 3 h after administration
  % Reversal [mean]: 41.5^†† %
[3]; 3 h after administration, listed as ibuprofen
  % Reversal [mean]: 41.5%
[3]; 5 h after administration
  % Reversal [mean]: 39.2^†† %
[3]; 5 h after administration, listed as ibuprofen
  % Reversal [mean]: 39.2%
[3]; 7 h after administration
  % Reversal [mean]: 32.5^†† %
[3]; 7 h after administration, listed as ibuprofen
  % Reversal [mean]: 32.5%
